According to the supplement of paper PMC10307832:

How the values were obtained:
Assay in all cases: relative viability (nuclei count vs DMSO), 5 days (fraction); higher = more cells survive
Zosuquidar + Palbociclib = compound: O[C@@H](COc1cccc2ncccc12)CN1CCN([C@@H]2c3ccccc3[C@@H]3[C@H](c4ccccc42)C3(F)F)CC1 [Zosuquidar] + CC(=O)c1c(C)c2cnc(Nc3ccc(N4CCNCC4)cn3)nc2n(C2CCCC2)c1=O [Palbociclib] (partner 0.5 µM)
Procedure, shortened: (§1)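 Lung cancer cell lines, seeded in 1536-well plates, were treated the following day by pin tool with a single drug or with five library-drug doses (not always all listed) in √10 steps on top of a fixed anchor-drug dose. Cells were fixed and nuclei stained in one step after 5 days, and nuclei were counted. Relative viability is the nuclei count for treated wells divided by that for vehicle wells, reported as medians of duplicate plates.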

[1] = compound: COc1cc2nccc(Oc3ccc(NC(=O)C4(C(=O)Nc5ccc(F)cc5)CC4)cc3)c2cc1OC [Cabozantinib] + CC(=O)c1c(C)c2cnc(Nc3ccc(N4CCNCC4)cn3)nc2n(C2CCCC2)c1=O [Palbociclib] (partner 0.5 µM)
Procedure, shortened: as §1

Kobe2602 + AZD7762 = compound: C1=CC(=CC=C1NC(=S)NNC2=C(C=C(C=C2[N+](=O)[O-])C(F)(F)F)[N+](=O)[O-])F [Kobe2602] + NC(=O)Nc1cc(-c2cccc(F)c2)sc1C(=O)N[C@H]1CCCNC1 [AZD7762] (partner 0.2 µM)
Procedure, shortened: as §1

[2] = compound: COc1cc2nccc(Oc3ccc(NC(=O)C4(C(=O)Nc5ccc(F)cc5)CC4)cc3)c2cc1OC [Cabozantinib] + C[C@]1(O)C[C@@H](c2nc(-c3ccc4ccc(-c5ccccc5)nc4c3)c3c(N)nccn32)C1 [Linsitinib] (partner 1 µM)
Procedure, shortened: as §1

| Cell Line | relative viability (Zosuquidar + Palbociclib; first compound 0.01 µM) | relative viability (Zosuquidar + Palbociclib; first compound 0.03162 µM) | relative viability (Zosuquidar + Palbociclib; first compound 0.1 µM) | relative viability (Zosuquidar + Palbociclib; first compound 0.3162 µM) | relative viability (Zosuquidar + Palbociclib; first compound 1 µM) | relative viability ([1]; first compound 0.02 µM) | relative viability ([1]; first compound 0.06325 µM) | relative viability ([1]; first compound 0.2 µM) | relative viability ([1]; first compound 0.6325 µM) | relative viability ([1]; first compound 2 µM) | relative viability (Kobe2602 + AZD7762; first compound 0.2 µM) | relative viability (Kobe2602 + AZD7762; first compound 0.6325 µM) | relative viability (Kobe2602 + AZD7762; first compound 2 µM) | relative viability (Kobe2602 + AZD7762; first compound 6.325 µM) | relative viability (Kobe2602 + AZD7762; first compound 20 µM) | relative viability ([2]; first compound 0.02 µM) | relative viability ([2]; first compound 0.06325 µM) | relative viability ([2]; first compound 0.2 µM) | relative viability ([2]; first compound 0.6325 µM) | relative viability ([2]; first compound 2 µM) |
| --- | --- | --- | --- | --- | --- | --- | --- | --- | --- | --- | --- | --- | --- | --- | --- | --- | --- | --- | --- | --- |
| NCI-H2126 | 0.349 | 0.339 | 0.351 | 0.341 | 0.351 | 0.315 | 0.37 | 0.336 | 0.364 | 0.332 | 1.07 | 1.01 | 1.09 | 1.08 | 0.988 | 0.727 | 0.755 | 0.735 | 0.733 | 0.701 |
| NCI-H2347 | 0.403 | 0.466 | 0.432 | 0.413 | 0.43 | 0.474 | 0.466 | 0.49 | 0.478 | 0.401 | 0.85 | 0.77 | 0.798 | 0.713 | 0.806 | 0.967 | 0.961 | 0.992 | 0.846 | 0.81 |
| NCI-H2405 | 0.565 | 0.528 | 0.555 | 0.539 | 0.489 | 0.509 | 0.568 | 0.568 | 0.569 | 0.519 | 0.767 | 0.912 | 0.664 | 0.798 | 0.857 | – | 1.14 | 0.905 | 0.908 | 0.852 |
| NCI-H3122 | 0.177 | 0.195 | 0.18 | 0.213 | 0.197 | 0.183 | 0.179 | 0.168 | 0.192 | 0.211 | 0.984 | 0.963 | 0.935 | 1.09 | 1.04 | 1.01 | 1.03 | 1.08 | 0.949 | 1 |
| PC-3 [JPC-3] | 0.554 | 0.52 | 0.542 | 0.507 | 0.473 | 0.574 | 0.559 | – | 0.514 | 0.636 | 0.872 | 0.913 | 0.603 | 0.823 | 0.835 | 0.971 | 0.993 | – | 1 | 0.902 |
| PC-14 | 0.506 | 0.475 | 0.635 | 0.509 | 0.52 | 0.511 | 0.703 | – | 0.516 | 0.417 | 0.39 | 0.445 | 0.348 | 0.351 | 0.308 | 1.09 | 1 | – | 0.961 | 0.927 |
| RERF-LC-KJ | 1.1 | 1.07 | 1.06 | 1.1 | 1.14 | 1.03 | 1.2 | 0.652 | 0.568 | 1.07 | 0.883 | 0.973 | 1.02 | 0.881 | 0.894 | 0.909 | 0.885 | 0.813 | 0.883 | 0.875 |
